Assay results from ChEMBL document CHEMBL5728197, “KDM1A inhibitors for the treatment of disease” (2021).

Target: Lysine-specific histone demethylase 1A (Homo sapiens, UniProt O60341)
Assay: Biological Activity Assay: Assaying the inhibition of KDM1A can be determined in vitro, in cultured cells, and in animals. There are a variety of spectrophotometric methods to detect the results of demethylation of methylated lysines, viz., detecting the products of KDM1A demethylase oxidative activity on a peptide fragment of at least 18 amino acid representing the N-terminus of the histone H3 substrate that contains a monomethyl at the fourth lysine residue. Hydrogen peroxide, one product of the KDM1A demethylase reaction, reacts with horseradish peroxidase and dihydroxyphenoxazine (ADHP) to produce the fluorescent compound resorufin (excitation=530-560 nm:emission=590 nm). The KDM1A demethylase enzyme activity can obtained from mammalian cells or tissues expressing KDM1A from an endogenous or recombinant gene and purified or assayed from a whole cell extract. These methods can be used to determine the concentration of the disclosed compounds can inhibit fifty percent of the enzyme activity (IC50).

Compound | IC50
COc1ccc([C@@H]2C[C@H]2NC(=O)COC[C@H](NC(=O)c2ccc(F)cc2)C(=O)N2CCOCC2)cc1 | > 1000 nM
O=C(N[C@@H](COCCN[C@@H]1C[C@H]1c1ccc(F)cc1)C(=O)N1CCOCC1)c1ccc(F)cc1 | < 1000 nM
